Test results reported in PubChem BioAssay AID330 (DTP/NCI, 2004).
Values joined by “and” are separate entries in the source; they are usually repeats but may differ in a detail not shown here. Identical values can stand only once. Toxic doses and inconclusive results are not listed. The calls were made as follows: active = survival T/C of 150% or more; inactive = T/C below 125% in these data.

Tested on: P388 leukemia ip, CD2F1 mice, survival T/C
Assay: NCI In Vivo Anticancer Drug Screen. Data for tumor model P388 Leukemia (intraperitoneal) in CD2F1 (CDF1) mice
Settings: endpoint: median survival time, higher = longer survival
Procedure, shortened: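 Mice carrying the transplanted tumor received test compound or vehicle. Survival was recorded in each group, and the value is the treated-group measurement divided by that of the vehicle-treated control group.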

[1] = dose: 50.0 mg/kg/injection, schedule: Q01DX009 (ip), vehicle: saline with Tween-80
[2] = dose: 100.0 mg/kg/injection, schedule: Q01DX009 (ip), vehicle: saline with Tween-80
[3] = dose: 200.0 mg/kg/injection, schedule: Q01DX009 (ip), vehicle: saline with Tween-80
[4] = dose: 50.0 mg/kg/injection, schedule: Q01DX009 (ip), vehicle: saline
[5] = dose: 100.0 mg/kg/injection, schedule: Q01DX009 (ip), vehicle: saline
[6] = dose: 200.0 mg/kg/injection, schedule: Q01DX009 (ip), vehicle: saline
[7] = dose: 60.0 mg/kg/injection, schedule: Q01DX005 (ip), vehicle: saline with Tween-80
[8] = dose: 120.0 mg/kg/injection, schedule: Q01DX005 (ip), vehicle: saline with Tween-80
[9] = dose: 25.0 mg/kg/injection, schedule: Q04DX002 (ip), vehicle: saline with Tween-80
[10] = dose: 50.0 mg/kg/injection, schedule: Q04DX002 (ip), vehicle: saline with Tween-80
[11] = dose: 100.0 mg/kg/injection, schedule: Q04DX002 (ip), vehicle: saline with Tween-80
[12] = dose: 240.0 mg/kg/injection, schedule: Q01DX005 (ip), vehicle: saline with Tween-80
[13] = dose: 50.0 mg/kg/injection, schedule: Q01DX005 (ip), vehicle: Klucel (hydroxypropylcellulose) (HPC)
[14] = dose: 100.0 mg/kg/injection, schedule: Q01DX005 (ip), vehicle: Klucel (hydroxypropylcellulose) (HPC)

Measured: T/C

CC(C)NS(=O)(=O)OCC(O)(CC(Cl)(Cl)Cl)c1ccccc1 (configuration not stated)
inactive: [1] 105 % of control | [2] 109 % of control and 112 % of control | [3] 105 % of control

CC/C(=C(/CC)c1ccc(OC(=O)N(CCCl)CCCl)cc1)c1ccc(OC(=O)N(CCCl)CCCl)cc1
inactive: [4] 97 % of control | [5] 99 % of control | [6] 99 % of control

COc1ccc(/C(C#N)=C/c2ccccc2)cc1
inactive: dose: 6.25 mg/kg/injection, schedule: Q01DX009 (ip), vehicle: suspension in saline 99 % of control and 103 % of control and 107 % of control | dose: 12.5 mg/kg/injection, schedule: Q01DX009 (ip), vehicle: suspension in saline 100 % of control and 108 % of control and 114 % of control | dose: 25.0 mg/kg/injection, schedule: Q01DX009 (ip), vehicle: saline with Tween-80 86 % of control | dose: 25.0 mg/kg/injection, schedule: Q01DX009 (ip), vehicle: suspension in saline 100 % of control and 92 % of control and 98 % of control | [1] 91 % of control | dose: 50.0 mg/kg/injection, schedule: Q01DX009 (ip), vehicle: suspension in saline 107 % of control and 124 % of control | [2] 91 % of control | [3] 101 % of control

COP(=O)(O)OC
inactive: dose: 200.0 mg/kg/injection, schedule: Q01DX001 (ip), vehicle: Klucel (hydroxypropylcellulose) (HPC) 88 % of control | dose: 400.0 mg/kg/injection, schedule: Q01DX001 (ip), vehicle: Klucel (hydroxypropylcellulose) (HPC) 100 % of control

COc1cc(O)c(O)c(C(C)(C)C)c1
inactive: dose: 3.75 mg/kg/injection, schedule: Q01DX005 (ip), vehicle: saline with Tween-80 103 % of control | dose: 7.5 mg/kg/injection, schedule: Q01DX005 (ip), vehicle: saline with Tween-80 105 % of control | dose: 15.0 mg/kg/injection, schedule: Q01DX005 (ip), vehicle: saline with Tween-80 108 % of control | dose: 30.0 mg/kg/injection, schedule: Q01DX005 (ip), vehicle: saline with Tween-80 116 % of control | [7] 107 % of control | [8] 95 % of control

COc1cc(COC(=O)c2ccc(CSc3ccc(Cl)cc3)o2)cc(OC)c1OC
inactive: dose: 50.0 mg/kg/injection, schedule: Q01DX005 (ip), vehicle: saline with Tween-80 99 % of control | dose: 100.0 mg/kg/injection, schedule: Q01DX005 (ip), vehicle: saline with Tween-80 99 % of control

CSC1SC(C#N)=C(N)C1[n+]1ccccc1 (configuration not stated)
inactive: [9] 105 % of control | [10] 105 % of control | [11] 104 % of control

CCCCCCCCCCCCC1=C(O)C(=O)C=C(O)C1=O
inactive: dose: 12.5 mg/kg/injection, schedule: Q01DX005 (ip), vehicle: suspension in saline 102 % of control | dose: 25.0 mg/kg/injection, schedule: Q01DX005 (ip), vehicle: suspension in saline 108 % of control | dose: 50.0 mg/kg/injection, schedule: Q01DX005 (ip), vehicle: saline 99 % of control | dose: 50.0 mg/kg/injection, schedule: Q01DX005 (ip), vehicle: suspension in saline 112 % of control

COC(=O)NC1(NC(=O)OC)NC(=O)c2cc(OC)c(OC)c(OC)c2N1
inactive: dose: 25.0 mg/kg/injection, schedule: Q01DX005 (ip), vehicle: saline + alcohol 102 % of control | dose: 50.0 mg/kg/injection, schedule: Q01DX005 (ip), vehicle: saline + alcohol 98 % of control | dose: 100.0 mg/kg/injection, schedule: Q01DX005 (ip), vehicle: saline + alcohol 100 % of control | dose: 200.0 mg/kg/injection, schedule: Q01DX005 (ip), vehicle: saline + alcohol 93 % of control

COc1ccc(/C=N/N2CN(C(CC(N)=O)C(=O)O)P(Nc3ncccn3)N=C2N)cc1OC (configuration not stated)
inactive: [7] 104 % of control | [8] 102 % of control | [12] 95 % of control

CC(C)(C)n1nnnc1Cl
inactive: dose: 50.0 mg/kg/injection, schedule: Q01DX009 (ip), vehicle: Klucel (hydroxypropylcellulose) (HPC) 107 % of control | dose: 100.0 mg/kg/injection, schedule: Q01DX009 (ip), vehicle: Klucel (hydroxypropylcellulose) (HPC) 102 % of control | dose: 200.0 mg/kg/injection, schedule: Q01DX009 (ip), vehicle: Klucel (hydroxypropylcellulose) (HPC) 107 % of control

COC1/C=C/OC2(C)Oc3c(C)c(O)c4c(c3C2=O)C(=O)C=C(NC(=O)/C(C)=C\C=C\C(C)C(OC=O)C(C)C(O)C(C)C(OC(C)=O)C1C)C4=O (configuration not stated)
inactive: [1] 100 % of control | [2] 92 % of control | [3] 91 % of control

C=C([Se]c1ccccc1)C(C)(C)C
inactive: [1] 114 % of control | [2] 119 % of control

CC(C)c1nc(-c2ccccc2)c(-c2ccccc2)[nH]1
inactive: [2] 90 % of control | [3] 90 % of control | dose: 400.0 mg/kg/injection, schedule: Q01DX009 (ip), vehicle: saline with Tween-80 95 % of control

CCCCCCCCCCCCCCCC[N+]1(CC)CCCCC1
inactive: dose: 0.59 mg/kg/injection, schedule: Q01DX009 (ip), vehicle: saline 121 % of control | dose: 0.78 mg/kg/injection, schedule: Q01DX009 (ip), vehicle: saline 89 % of control

O=C1NS(=O)(=O)Oc2ccccc2O1
inactive: [13] 107 % of control | [14] 100 % of control | dose: 200.0 mg/kg/injection, schedule: Q01DX005 (ip), vehicle: Klucel (hydroxypropylcellulose) (HPC) 95 % of control

O=C(CP(=O)(O)O)OC1CCCCC1
inactive: dose: 100.0 mg/kg/injection, schedule: Q01DX001 (ip), vehicle: saline 101 % of control | dose: 200.0 mg/kg/injection, schedule: Q01DX001 (ip), vehicle: saline 101 % of control | dose: 400.0 mg/kg/injection, schedule: Q01DX001 (ip), vehicle: saline 100 % of control

C=CCN1CCN(c2ccncc2S(=O)(=O)N2CCN(C)CC2)CC1
inactive: [4] 105 % of control | [5] 99 % of control | [6] 97 % of control

CCOC(CSCC#N)OCC
inactive: dose: 12.5 mg/kg/injection, schedule: Q01DX009 (ip), vehicle: saline sonified 100 % of control | dose: 25.0 mg/kg/injection, schedule: Q01DX009 (ip), vehicle: saline sonified 95 % of control | dose: 50.0 mg/kg/injection, schedule: Q01DX009 (ip), vehicle: saline sonified 100 % of control

Cc1ccc(-c2csc(=NCCc3ccccc3)n2-c2ccc(C)cc2)cc1
inactive: dose: 12.5 mg/kg/injection, schedule: Q04DX002 (ip), vehicle: saline with Tween-80 97 % of control | [9] 99 % of control | [10] 88 % of control | [11] 88 % of control | dose: 400.0 mg/kg/injection, schedule: Q04DX002 (ip), vehicle: saline with Tween-80 93 % of control

O=C(COc1ccccc1)OC(=O)COc1ccccc1
inactive: dose: 25.0 mg/kg/injection, schedule: Q01DX009 (ip), vehicle: other 109 % of control | dose: 50.0 mg/kg/injection, schedule: Q01DX009 (ip), vehicle: other 100 % of control | dose: 100.0 mg/kg/injection, schedule: Q01DX009 (ip), vehicle: other 93 % of control | dose: 200.0 mg/kg/injection, schedule: Q01DX009 (ip), vehicle: other 98 % of control

O=C1c2ccccc2C(=O)c2c1ccc(C1C(=O)c3ccccc3C1=O)c2-c1c(C2C(=O)c3ccccc3C2=O)ccc2c1C(=O)c1ccccc1C2=O
inactive: [7] 103 % of control | [8] 99 % of control | [12] 97 % of control

CCCCCCCCCCCC(=O)N(CCOC(=O)c1ccccc1)CCc1ccccc1
inactive: [1] 109 % of control | [2] 109 % of control | [3] 116 % of control

CC(C)(C)OC(=O)C(N)C(F)C(=O)OC(C)(C)C (configuration not stated)
inactive: dose: 25.0 mg/kg/injection, schedule: Q04DX003 (ip), vehicle: saline with Tween-80 96 % of control | dose: 50.0 mg/kg/injection, schedule: Q04DX003 (ip), vehicle: saline with Tween-80 101 % of control | dose: 100.0 mg/kg/injection, schedule: Q04DX003 (ip), vehicle: saline with Tween-80 99 % of control and 104 % of control | dose: 400.0 mg/kg/injection, schedule: Q04DX003 (ip), vehicle: saline with Tween-80 97 % of control

CCOC(=O)COC1=NN(c2cccc(C(F)(F)F)c2)CC1
inactive: dose: 100.0 mg/kg/injection, schedule: Q04DX003 (ip), vehicle: Klucel (hydroxypropylcellulose) (HPC) 110 % of control | dose: 200.0 mg/kg/injection, schedule: Q04DX003 (ip), vehicle: Klucel (hydroxypropylcellulose) (HPC) 110 % of control | dose: 400.0 mg/kg/injection, schedule: Q04DX003 (ip), vehicle: Klucel (hydroxypropylcellulose) (HPC) 109 % of control

CCOC(=O)C(=CNc1ccc2c(C)cc3ccc(C(=O)OCC)c(=O)n3c2n1)C(=O)OCC
inactive: [13] 88 % of control | [14] 86 % of control
